Measured values from ChEMBL document CHEMBL1156872, “Synthesis and discovery of 2,3-dihydro-3,8-diphenylbenzo[1,4]oxazines as a novel class of potent cholesteryl ester transfer protein inhibitors” (Bioorg Med Chem Lett, 2010).

Experiments:
[1] = Aqueous solubility at pH 2.0; assay type: physicochemical; conditions: aqueous medium
[2] = Aqueous solubility at pH 7.4; assay type: physicochemical; conditions: aqueous medium
[3] = target: T1, Cholesteryl ester transfer protein (Homo sapiens, UniProt P11597); assay: Inhibition of human cholesteryl ester transfer protein by scintillation proximity assay
T1 sequence (P11597 whole entry): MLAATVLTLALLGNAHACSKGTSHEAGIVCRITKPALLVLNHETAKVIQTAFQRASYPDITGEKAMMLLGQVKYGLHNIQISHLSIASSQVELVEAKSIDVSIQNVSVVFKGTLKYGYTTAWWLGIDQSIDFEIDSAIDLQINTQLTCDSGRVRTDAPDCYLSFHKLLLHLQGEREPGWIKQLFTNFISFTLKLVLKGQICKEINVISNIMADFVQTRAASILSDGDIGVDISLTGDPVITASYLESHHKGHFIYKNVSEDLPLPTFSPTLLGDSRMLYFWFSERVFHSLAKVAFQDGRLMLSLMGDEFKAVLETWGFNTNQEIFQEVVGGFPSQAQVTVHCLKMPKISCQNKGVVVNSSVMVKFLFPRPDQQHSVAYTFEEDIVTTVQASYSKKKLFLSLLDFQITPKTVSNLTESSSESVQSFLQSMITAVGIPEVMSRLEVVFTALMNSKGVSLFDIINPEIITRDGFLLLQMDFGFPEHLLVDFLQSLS

[4] = target: T2, Cholesteryl ester transfer protein (Homo sapiens) (UniProt P11597); assay: Inhibition of human cholesteryl ester transfer protein at 1 uM by scintillation proximity assay
T2 sequence (whole entry): T1 sequence (P11597 whole entry)

Row | Structure (SMILES) | inhibition [4] | other results
1 | O[C@@H](CN1c2cccc(-c3cccc(OC(F)(F)F)c3)c2CC[C@@H]1c1cccc(OC(F)(F)C(F)F)c1)C(F)(F)F |  | solubility [1]: < 1 µg/mL; solubility [2]: < 1 µg/mL
2 | O[C@@H](CN1c2cccc(-c3cccc(OC(F)(F)F)c3)c2OC[C@@H]1c1cccc(OC(F)(F)F)c1)C(F)(F)F | 69% | IC50 [3]: 133 nM
3 | CCOc1cccc(C2COc3c(-c4cccc(OC(F)(F)F)c4)cccc3N2CC(O)C(F)(F)F)c1 (mixture of isomers) | 56% | 
4 | CC(=O)CN1c2cccc(-c3cccc(OC(F)(F)F)c3)c2OC[C@@H]1c1cccc(OC(F)(F)C(F)F)c1 | 5% | 
5 | CC(C)(O)CN1c2cccc(-c3cccc(OC(F)(F)F)c3)c2OCC1c1cccc(OC(F)(F)C(F)F)c1 (racemic) | 29% | 
6 | OC(CN1c2cccc(-c3cccc(OC(F)(F)F)c3)c2OCC1c1cccc(SC(F)(F)F)c1)C(F)(F)F (mixture of isomers) | 68% | 
7 | O[C@@H](CF)CN1c2cccc(-c3cccc(OC(F)(F)F)c3)c2OC[C@@H]1c1cccc(OC(F)(F)C(F)F)c1 | 55% | 
8 | OC(CN1c2cccc(-c3cccc(OC(F)(F)F)c3)c2OCC1c1ccccc1OC(F)(F)C(F)F)C(F)(F)F (mixture of isomers) | 6% | 
9 | C[C@H](O)CN1c2cccc(-c3cccc(OC(F)(F)F)c3)c2OC[C@@H]1c1cccc(OC(F)(F)C(F)F)c1 | 50% | IC50 [3]: 88 nM
10 | O[C@@H](CN1c2cccc(-c3cc(C(F)(F)F)cc(C(F)(F)F)c3)c2OC[C@@H]1c1cccc(OC(F)(F)C(F)F)c1)C(F)(F)F | 59% | 
11 | OC(CN1c2cccc(-c3cccc(OC(F)(F)F)c3)c2OCC1c1cccc(Cl)c1)C(F)(F)F (mixture of isomers) | 62% | 
12 | O[C@@H](CN1c2cccc(-c3cccc(OC(F)(F)F)c3)c2OC[C@H]1c1cccc(OC(F)(F)C(F)F)c1)C(F)(F)F | 14% | 
13 | COc1cccc(C2COc3c(-c4cccc(OC(F)(F)F)c4)cccc3N2CC(O)C(F)(F)F)c1 (mixture of isomers) | 29% | 
14 | OC(CN1c2cccc(-c3cccc(OC(F)(F)F)c3)c2OCC1c1ccc2c(c1)OC(F)(F)O2)C(F)(F)F (mixture of isomers) | 48% | IC50 [3]: 271 nM
15 | O[C@@H](CN1c2cccc(-c3cc(F)cc(F)c3)c2OC[C@@H]1c1cccc(OC(F)(F)F)c1)C(F)(F)F | 100% | 
16 | OC(CN1c2cccc(-c3cccc(F)c3)c2OCC1c1cccc(OC(F)(F)C(F)F)c1)C(F)(F)F (mixture of isomers) | 79% | 
17 | OC(CN1c2cccc(-c3cccc(OC(F)(F)F)c3)c2OCC1c1ccc(OC(F)(F)F)cc1)C(F)(F)F (mixture of isomers) | 38% | 
18 | CC(C)C(O)CN1c2cccc(-c3cccc(OC(F)(F)F)c3)c2OCC1c1cccc(OC(F)(F)C(F)F)c1 (mixture of isomers) | 86% | IC50 [3]: 129 nM
19 | OC(CN1c2cccc(-c3cccc(OC(F)(F)F)c3)c2OCC1c1cccc(OC(F)(F)F)c1)C(F)(F)F (mixture of isomers) | 65% | IC50 [3]: 107 nM
20 | OC(CN1c2cccc(-c3cccc(OC(F)(F)F)c3)c2OCC1c1ccccc1)C(F)(F)F (mixture of isomers) | 43% | 
21 | CN(C)CCN1c2cccc(-c3cccc(OC(F)(F)F)c3)c2OCC1c1cccc(OC(F)(F)C(F)F)c1 (racemic) | 9% | 
22 | OC[C@@H](O)CN1c2cccc(-c3cccc(OC(F)(F)F)c3)c2OC[C@@H]1c1cccc(OC(F)(F)C(F)F)c1 | 27% | 
